Assay results: patent US20100152434A1, “Protein Kinase-binding Nucleosides and Associated Methods” (priority 2007, published 2010)
Like-named read-outs stand apart in the source and are kept apart here.

Key:
[1] = biological target: FLT3 (Homo sapiens, UniProt P36888); experiment: Ambit kinase phage display ATP-binding-site ligand binding assay; conditions: read-out: % Inhibition of binding to ATP-binding-site ligand
Text: (§1) This assay is based on ligand-affinity/protein kinase phage display and was employed essentially as described by Fabian et. al [Nature Biotech. […] In this assay, protein kinases are cloned into T7 bacteriophage which express the kinase fusion proteins on the phage capsid. T7 kinase-tagged phage are then screened for binding to ATP-binding-site ligands that have been immobilized on a solid support. Phage are screened for binding to the anchored ligands both in the presence of test compound and in its absence (control). Elution of the bound phage by free ligand (ATP-binding site ligand that is not immobilized on a solid support) followed by determination of the phage titre provides a reliable measure of the ability of test compounds to block binding of target kinases to resin-bound ATP-binding-site ligands.
(§2) T7 kinase-tagged phage strains were grown in parallel in microtiter plates in a proprietary bacterial host derived from E. Coli strain BL21. E. Coli were grown to a log phase, infected with T7 kinase-tagged phage, and incubated while shaking at 32° C. until bacterial lysis (approx. 90 min). Lysates were centrifuged (6,000 g) and filtered (0.2 μm). […] The phage titre of the eluates was measured by quantitative PCR or by plaque assays. […]

[2] = biological target: TYK2(Kin.Dom.1) (Homo sapiens, UniProt P29597); experiment: as above; conditions: read-out: percent inhibition of binding
TYK2(Kin.Dom.1), sequence (P29597 589-875 limits assumed): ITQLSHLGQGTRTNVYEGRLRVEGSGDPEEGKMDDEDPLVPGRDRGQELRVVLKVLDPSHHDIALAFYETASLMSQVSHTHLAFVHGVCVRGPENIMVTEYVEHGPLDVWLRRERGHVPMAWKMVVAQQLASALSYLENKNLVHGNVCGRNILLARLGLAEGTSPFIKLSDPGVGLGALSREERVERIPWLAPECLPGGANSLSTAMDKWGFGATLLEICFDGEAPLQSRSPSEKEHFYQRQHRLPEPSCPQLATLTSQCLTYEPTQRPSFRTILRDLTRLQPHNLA
Text: (§3) In this assay, protein kinases are cloned into T7 bacteriophage which express the kinase fusion proteins on the phage capsid. T7 kinase-tagged phage are then screened for binding to ATP-binding-site ligands that have been immobilized on a solid support. Phage are screened for binding to the anchored ligands both in the presence of test compound and in its absence (control). Elution of the bound phage by free ligand (ATP-binding site ligand that is not immobilized on a solid support) followed by determination of the phage titre provides a reliable measure of the ability of test compounds to block binding of target kinases to resin-bound ATP-binding-site ligands.
(§4) T7 kinase-tagged phage strains were grown in parallel in microtiter plates in a proprietary bacterial host derived from E. Coli strain BL21. E. Coli were grown to a log phase, infected with T7 kinase-tagged phage, and incubated while shaking at 32° C. until bacterial lysis (approx. 90 min). Lysates were centrifuged (6,000 g) and filtered (0.2 μm). Small molecule ATP-binding-site-specific ligands were anchored to solid supports via a two step process beginning with biotin conjugation followed by treatment of the biotin/small molecule conjugate with streptavidin-coated magnetic beads. […] The phage titre of the eluates was measured by quantitative PCR or by plaque assays. […]

[3] = system: K-562
[4] = system: K-562; experiment: cells; conditions: Homo sapiens
[5] = biological target: PDGFRB (Homo sapiens, UniProt P09619); experiment: Ambit kinase phage display ATP-binding-site ligand binding assay; conditions: read-out: percent inhibition of binding
PDGFRB, sequence (P09619 33-1106): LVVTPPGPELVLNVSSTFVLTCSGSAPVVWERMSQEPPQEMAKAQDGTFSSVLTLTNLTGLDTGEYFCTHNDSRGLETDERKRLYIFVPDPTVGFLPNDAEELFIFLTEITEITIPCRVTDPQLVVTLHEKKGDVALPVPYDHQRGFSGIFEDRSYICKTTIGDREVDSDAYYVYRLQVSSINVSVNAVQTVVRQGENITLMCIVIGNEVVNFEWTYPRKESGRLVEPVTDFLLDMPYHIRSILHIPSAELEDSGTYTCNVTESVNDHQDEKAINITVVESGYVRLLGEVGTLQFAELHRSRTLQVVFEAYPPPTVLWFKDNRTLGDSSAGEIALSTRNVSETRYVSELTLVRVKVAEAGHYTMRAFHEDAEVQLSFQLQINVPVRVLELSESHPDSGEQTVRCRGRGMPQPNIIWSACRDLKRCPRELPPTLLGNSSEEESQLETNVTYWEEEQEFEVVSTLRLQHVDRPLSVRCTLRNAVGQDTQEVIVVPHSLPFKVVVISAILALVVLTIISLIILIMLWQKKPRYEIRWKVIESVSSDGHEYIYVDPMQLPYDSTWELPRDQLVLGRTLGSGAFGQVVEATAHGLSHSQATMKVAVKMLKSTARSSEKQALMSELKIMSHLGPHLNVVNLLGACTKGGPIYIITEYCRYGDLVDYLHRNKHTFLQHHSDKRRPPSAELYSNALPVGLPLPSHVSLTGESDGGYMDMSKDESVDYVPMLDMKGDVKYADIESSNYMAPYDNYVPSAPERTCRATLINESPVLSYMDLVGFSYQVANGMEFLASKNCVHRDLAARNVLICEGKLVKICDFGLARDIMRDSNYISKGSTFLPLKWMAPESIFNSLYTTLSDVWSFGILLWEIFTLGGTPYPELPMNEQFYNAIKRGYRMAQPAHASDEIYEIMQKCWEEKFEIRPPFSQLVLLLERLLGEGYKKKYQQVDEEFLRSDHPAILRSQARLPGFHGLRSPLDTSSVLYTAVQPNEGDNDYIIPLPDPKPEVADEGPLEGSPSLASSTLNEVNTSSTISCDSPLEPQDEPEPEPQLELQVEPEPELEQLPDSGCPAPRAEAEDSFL
Text: as §3, §4

[6] = system: SK-MEL-28; experiment: cells; conditions: Homo sapiens
[7] = system: SK-MEL-28
[8] = biological target: ERK2 (Homo sapiens, UniProt P28482); experiment: Ambit kinase phage display ATP-binding-site ligand binding assay; conditions: read-out: percent inhibition of binding
ERK2, sequence (P28482 whole entry, species assumed): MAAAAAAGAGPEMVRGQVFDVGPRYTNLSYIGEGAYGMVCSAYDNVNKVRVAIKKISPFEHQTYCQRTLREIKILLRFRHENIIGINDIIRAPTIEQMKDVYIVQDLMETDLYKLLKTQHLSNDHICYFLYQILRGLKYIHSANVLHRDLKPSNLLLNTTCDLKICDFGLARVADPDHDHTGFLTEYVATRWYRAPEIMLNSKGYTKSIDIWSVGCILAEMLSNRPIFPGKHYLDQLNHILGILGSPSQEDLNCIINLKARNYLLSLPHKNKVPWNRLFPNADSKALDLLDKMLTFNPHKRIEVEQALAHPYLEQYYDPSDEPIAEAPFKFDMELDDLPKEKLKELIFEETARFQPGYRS
Text: as §3, §4

[9] = system: PC-3
[10] = biological target: MAP4K5 (Homo sapiens, UniProt Q9Y4K4); experiment: Ambit kinase phage display ATP-binding-site ligand binding assay; conditions: read-out: percent inhibition of binding
MAP4K5, sequence (Q9Y4K4 whole entry): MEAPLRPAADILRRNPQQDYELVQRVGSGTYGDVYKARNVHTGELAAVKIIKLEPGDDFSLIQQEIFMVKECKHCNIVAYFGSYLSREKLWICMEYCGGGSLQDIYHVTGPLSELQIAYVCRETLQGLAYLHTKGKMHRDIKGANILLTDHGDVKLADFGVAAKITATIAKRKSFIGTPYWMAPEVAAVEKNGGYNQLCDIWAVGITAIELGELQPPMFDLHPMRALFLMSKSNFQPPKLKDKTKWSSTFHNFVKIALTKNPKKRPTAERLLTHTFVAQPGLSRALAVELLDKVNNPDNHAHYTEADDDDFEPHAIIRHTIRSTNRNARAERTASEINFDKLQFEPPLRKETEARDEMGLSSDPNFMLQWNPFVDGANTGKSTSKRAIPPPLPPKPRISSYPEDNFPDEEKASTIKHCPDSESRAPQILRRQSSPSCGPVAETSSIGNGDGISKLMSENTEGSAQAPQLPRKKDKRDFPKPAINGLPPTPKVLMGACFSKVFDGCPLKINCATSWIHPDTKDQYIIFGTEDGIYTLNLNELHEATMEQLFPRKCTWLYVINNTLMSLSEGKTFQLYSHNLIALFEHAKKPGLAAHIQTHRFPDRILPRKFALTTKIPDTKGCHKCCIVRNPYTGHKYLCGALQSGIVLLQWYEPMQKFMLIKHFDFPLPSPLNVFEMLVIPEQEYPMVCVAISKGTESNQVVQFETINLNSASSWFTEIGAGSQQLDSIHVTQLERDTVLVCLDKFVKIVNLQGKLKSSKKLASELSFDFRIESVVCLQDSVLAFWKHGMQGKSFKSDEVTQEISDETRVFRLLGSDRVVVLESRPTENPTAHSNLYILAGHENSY
Text: as §1, §2

[11] = system: HL-60(TB)
[12] = system: MOLT-4
[13] = system: 60 different human tumor cell lines (the NCI 60); experiment: cells; conditions: read-out: LC50 value for each cell line
[14] = system: PC-3; experiment: cells; conditions: Homo sapiens
[15] = system: HL-60(TB); experiment: cells; conditions: Homo sapiens
[16] = biological target: CDK3 (Homo sapiens, UniProt Q00526); experiment: Ambit kinase phage display ATP-binding-site ligand binding assay; conditions: read-out: percent inhibition of binding
CDK3, sequence (Q00526 whole entry): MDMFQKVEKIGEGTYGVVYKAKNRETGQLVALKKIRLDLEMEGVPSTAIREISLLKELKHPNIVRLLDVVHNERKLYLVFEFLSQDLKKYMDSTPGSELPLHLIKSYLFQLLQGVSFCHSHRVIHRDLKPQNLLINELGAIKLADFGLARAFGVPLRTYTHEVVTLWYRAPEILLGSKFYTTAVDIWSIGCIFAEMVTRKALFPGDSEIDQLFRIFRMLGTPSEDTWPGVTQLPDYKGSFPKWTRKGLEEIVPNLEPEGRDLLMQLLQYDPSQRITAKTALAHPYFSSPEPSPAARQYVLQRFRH
Text: as §1, §2

[17] = biological target: RPS6KA6(kin.Dom.2) (Homo sapiens, UniProt Q9UK32); experiment: as above; conditions: read-out: percent inhibition of binding
RPS6KA6(kin.Dom.2), sequence (Q9UK32 426-683 limits assumed): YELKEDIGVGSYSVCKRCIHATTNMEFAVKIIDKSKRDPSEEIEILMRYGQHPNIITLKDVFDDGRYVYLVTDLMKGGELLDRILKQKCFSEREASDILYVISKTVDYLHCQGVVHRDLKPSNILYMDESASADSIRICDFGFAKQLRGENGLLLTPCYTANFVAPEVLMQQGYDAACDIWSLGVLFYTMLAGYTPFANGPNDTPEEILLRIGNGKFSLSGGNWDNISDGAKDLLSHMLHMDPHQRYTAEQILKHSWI
Text: as §1, §2

[18] = cells; conditions: Homo sapiens
[19] = biological target: CAMKK2 (Homo sapiens, UniProt Q96RR4); experiment: Ambit kinase phage display ATP-binding-site ligand binding assay; conditions: read-out: percent inhibition of binding
Text: as §3, §4

[20] = system: 60 different human tumor cell lines (the NCI 60); conditions: CCRF-CEM, HL-60(TB), K-562, MOLT-4, RPMI-8226, SR, A549/ATCC, NCI-H460, HCT-116, HCT-15, HT29, SF-268, SF-295, U251, LOX IMVI, SK-MEL-28, SK-MEL-5, IGROV1, OVCAR-3, OVCAR-8, A498, RXF393, MCF7, HS578T
[21] = biological target: RPSGKA1 (Homo sapiens, UniProt Q15418); experiment: Ambit kinase phage display ATP-binding-site ligand binding assay; conditions: read-out: % Inhibition of binding to ATP-binding-site ligand
Text: as §3, §4

[22] = system: HS 578T
[23] = system: MOLT-4; experiment: cells; conditions: Homo sapiens
[24] = system: SW-620
[25] = biological target: MST1 (Homo sapiens, UniProt Q13043); experiment: Ambit kinase phage display ATP-binding-site ligand binding assay; conditions: read-out: percent inhibition of binding
MST1, sequence (Q13043 whole entry): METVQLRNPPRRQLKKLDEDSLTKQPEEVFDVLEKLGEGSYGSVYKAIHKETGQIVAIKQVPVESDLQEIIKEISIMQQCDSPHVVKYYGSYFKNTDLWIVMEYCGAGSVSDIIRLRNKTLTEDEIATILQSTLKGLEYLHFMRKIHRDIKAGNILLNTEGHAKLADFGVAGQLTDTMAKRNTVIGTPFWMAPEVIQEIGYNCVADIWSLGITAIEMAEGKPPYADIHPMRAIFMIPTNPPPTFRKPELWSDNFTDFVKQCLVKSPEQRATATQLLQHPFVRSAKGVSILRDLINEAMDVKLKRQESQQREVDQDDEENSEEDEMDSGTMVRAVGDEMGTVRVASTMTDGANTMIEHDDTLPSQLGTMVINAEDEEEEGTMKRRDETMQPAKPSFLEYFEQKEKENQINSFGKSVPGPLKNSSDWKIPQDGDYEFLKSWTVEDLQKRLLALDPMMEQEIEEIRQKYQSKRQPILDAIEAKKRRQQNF
Text: as §3, §4

[26] = system: SR; experiment: cells; conditions: Homo sapiens; for CC50: read-out: LC50
[27] = system: HS 578T; experiment: cells; conditions: Homo sapiens; for CC50: read-out: LC50
[28] = Log10 Concentration −4.0, Molar
[29] = Log10 Concentration −5.0, Molar
[30] = Log10 Concentration −6.0, Molar
[31] = Log10 Concentration −7.0, Molar
[32] = Log10 Concentration −8.0, Molar

FLT3, sequence (P36888 27-993, species assumed): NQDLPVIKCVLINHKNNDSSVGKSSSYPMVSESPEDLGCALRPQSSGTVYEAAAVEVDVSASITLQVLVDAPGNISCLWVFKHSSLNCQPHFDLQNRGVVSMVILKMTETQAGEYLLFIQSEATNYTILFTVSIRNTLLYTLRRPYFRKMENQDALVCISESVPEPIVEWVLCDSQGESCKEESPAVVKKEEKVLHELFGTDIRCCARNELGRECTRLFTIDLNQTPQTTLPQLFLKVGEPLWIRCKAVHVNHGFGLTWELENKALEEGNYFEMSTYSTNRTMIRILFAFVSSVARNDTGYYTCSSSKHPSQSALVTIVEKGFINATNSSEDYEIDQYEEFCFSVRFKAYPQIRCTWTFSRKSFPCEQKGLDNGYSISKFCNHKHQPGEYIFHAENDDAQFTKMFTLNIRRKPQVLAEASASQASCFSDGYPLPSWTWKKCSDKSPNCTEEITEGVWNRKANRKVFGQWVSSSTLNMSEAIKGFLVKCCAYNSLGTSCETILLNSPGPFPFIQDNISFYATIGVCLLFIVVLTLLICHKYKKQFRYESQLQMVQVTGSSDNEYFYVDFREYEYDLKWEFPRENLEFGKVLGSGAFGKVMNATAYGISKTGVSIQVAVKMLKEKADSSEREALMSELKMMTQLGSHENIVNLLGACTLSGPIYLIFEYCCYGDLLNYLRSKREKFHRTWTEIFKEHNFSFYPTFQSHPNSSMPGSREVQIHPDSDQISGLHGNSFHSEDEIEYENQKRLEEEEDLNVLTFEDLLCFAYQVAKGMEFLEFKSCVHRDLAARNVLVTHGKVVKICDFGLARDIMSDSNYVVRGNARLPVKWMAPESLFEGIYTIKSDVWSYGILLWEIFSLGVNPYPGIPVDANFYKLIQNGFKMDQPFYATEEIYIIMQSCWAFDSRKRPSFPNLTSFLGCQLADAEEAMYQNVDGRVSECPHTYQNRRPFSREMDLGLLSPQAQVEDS

CCOC(=O)C[C@@H]1C(O[Si](C)(C)C(C)(C)C)[C@H](n2cnc3c(NC(=O)Nc4ccccc4)ncnc32)O[C@@H]1CNC(=O)NC (stereo partly shown) [Compound 10]
inhibition at 10 µM [1]: 31%
inhibition at 10 µM [2]: 20 to 29%
TGI ([3]; 48 h): 3.29E−5 Molar
Percent Growth [3, 28]: −17%
Percent Growth [3, 29]: 19%
Percent Growth [3, 30]: 89%
Percent Growth [3, 31]: 93%
Percent Growth [3, 32]: 96%
GI50 ([4]; K562, 48 h): 3.59 µM
CC50 ([4]; K562, 48 h, read-out: LC50): > 100 µM
inhibition at 10 µM [5]: 20 to 29%
GI50 ([6]; SK-MEL-28, 48 h): 6.85 µM
CC50 ([6]; SK-MEL-28, 48 h, read-out: LC50): 48.7 µM
TGI ([7]; 48 h): 2.02E−5 Molar
Percent Growth [7, 28]: −91%
Percent Growth [7, 29]: 40%
Percent Growth [7, 30]: 100%
Percent Growth [7, 31]: 106%
Percent Growth [7, 32]: 104%
inhibition at 10 µM [8]: 20 to 29%
TGI ([9]; 48 h): 4.85E−6 Molar
Percent Growth [9, 28]: −77%
Percent Growth [9, 29]: −47%
Percent Growth [9, 30]: 103%
Percent Growth [9, 31]: 126%
Percent Growth [9, 32]: 121%
inhibition at 10 µM [10]: 20 to 29%
Percent Growth [11, 28]: 22%
Percent Growth [11, 29]: −5%
Percent Growth [11, 30]: 101%
Percent Growth [11, 31]: 110%
Percent Growth [11, 32]: 85%
TGI ([12]; 48 h): 2.33E−5 Molar
Percent Growth [12, 28]: −14%
Percent Growth [12, 29]: 8%
Percent Growth [12, 30]: 76%
Percent Growth [12, 31]: 84%
Percent Growth [12, 32]: 93%
CC50 [13]: > 100 µM
GI50 ([14]; PC-3, 48 h): 2.25 µM
CC50 ([14]; PC-3, 48 h, read-out: LC50): 12.5 µM
GI50 ([15]; HL-60, 48 h): 3.01 µM
CC50 ([15]; HL-60, 48 h, read-out: LC50): > 100 µM
inhibition at 10 µM [16]: 20 to 29%
inhibition at 10 µM [17]: 20 to 29%
CC50 ([18]; 48 h, read-out: LC50): 17.9 µM
inhibition at 10 µM [19]: 20 to 29%
GI50 values (potent anticancer activities) ([20]; HOP-62, NCI-H522, COLO 205, KM12, SW-620, SF-539, SNB-75, M14, SK-MEL-2, UACC-257, 786-0, ACHN, SN12C, PC-3, DU-145, MDA-MB-231/ATCC, MDA-MB-435, T-47D): low micromolar
inhibition at 10 µM [21]: 40%
TGI ([22]; 48 h): 5.36E−5 Molar
Percent Growth [22, 28]: −7%
Percent Growth [22, 29]: 18%
Percent Growth [22, 30]: 90%
Percent Growth [22, 31]: 95%
Percent Growth [22, 32]: 94%
GI50 ([23]; MOLT-4, 48 h): 2.39 µM
CC50 ([23]; MOLT-4, 48 h, read-out: LC50): > 100 µM
TGI ([24]; 48 h): 2.84E−5 Molar
Percent Growth [24, 28]: −33%
Percent Growth [24, 29]: 28%
Percent Growth [24, 30]: 97%
Percent Growth [24, 31]: 94%
Percent Growth [24, 32]: 97%
inhibition at 10 µM [25]: 20 to 29%
GI50 ([26]; 48 h): 2.23 µM
CC50 ([26]; 48 h): > 100 µM
GI50 ([27]; 48 h): 3.6 µM
CC50 ([27]; 48 h): > 100 µM

CNC(=O)NC[C@H]1O[C@@H](n2cnc3c(NC(=O)Nc4ccccc4)ncnc32)[C@H](O[Si](C)(C)C(C)(C)C)[C@@H]1CC(=O)N(C)OC [Compound 13, 2′-O-(tert-Butyldimethylsilyl)-3′,5′-dideoxy-3′-[(N-methoxy-N-methylcarboxamido)methyl]-5′-[(N-methylcarbamoyl)amino]-N^6-(N-phenylcarbamoyl)adenosine]
TGI [3]: >1.00E−4 Molar
Percent Growth ([3]; Log10 Concentration −4.0): 24%
Percent Growth ([3]; Log10 Concentration −5.0): 17%
Percent Growth ([3]; Log10 Concentration −6.0): 82%
Percent Growth ([3]; Log10 Concentration −7.0): 95%
Percent Growth ([3]; Log10 Concentration −8.0): 95%
GI50 ([4]; K562): 3.12 µM
CC50 ([4]; K562, read-out: LC50): > 100 µM
GI50 ([6]; SK-MEL-28): 7.77 µM
CC50 ([6]; SK-MEL-28, read-out: LC50): > 100 µM
TGI [7]: >1.00E−4 Molar
Percent Growth ([7]; Log10 Concentration −4.0): 27%
Percent Growth ([7]; Log10 Concentration −5.0): 44%
Percent Growth ([7]; Log10 Concentration −6.0): 101%
Percent Growth ([7]; Log10 Concentration −7.0): 106%
Percent Growth ([7]; Log10 Concentration −8.0): 97%
TGI [11]: 4.34E−6 Molar
Percent Growth ([11]; Log10 Concentration −4.0): −58%
Percent Growth ([11]; Log10 Concentration −5.0): −48%
Percent Growth ([11]; Log10 Concentration −6.0): 84%
Percent Growth ([11]; Log10 Concentration −7.0): 86%
Percent Growth ([11]; Log10 Concentration −8.0): 95%
TGI [12]: 9.36E−6 Molar
Percent Growth ([12]; Log10 Concentration −4.0): −5%
Percent Growth ([12]; Log10 Concentration −5.0): −2%
Percent Growth ([12]; Log10 Concentration −6.0): 78%
Percent Growth ([12]; Log10 Concentration −7.0): 90%
Percent Growth ([12]; Log10 Concentration −8.0): 96%
CC50 [13]: > 100 µM
GI50 ([15]; HL-60): 1.81 µM
CC50 ([15]; HL-60, read-out: LC50): 16.4 µM
CC50 ([18]; 786-0, read-out: LC50): > 100 µM
GI50 values (potent anticancer activities) ([20]; HOP-92): low micromolar
TGI [22]: >1.00E−4 Molar
Percent Growth ([22]; Log10 Concentration −4.0): 12%
Percent Growth ([22]; Log10 Concentration −5.0): 40%
Percent Growth ([22]; Log10 Concentration −6.0): 82%
Percent Growth ([22]; Log10 Concentration −7.0): 98%
Percent Growth ([22]; Log10 Concentration −8.0): 98%
GI50 ([23]; MOLT-4): 2.23 µM
CC50 ([23]; MOLT-4, read-out: LC50): > 100 µM
TGI [24]: >1.00E−4 Molar
Percent Growth ([24]; Log10 Concentration −4.0): 50%
Percent Growth ([24]; Log10 Concentration −5.0): 65%
Percent Growth ([24]; Log10 Concentration −6.0): 93%
Percent Growth ([24]; Log10 Concentration −7.0): 102%
Percent Growth ([24]; Log10 Concentration −8.0): 99%
GI50 [26]: 1.27 µM
CC50 [26]: 9.43 µM
GI50 [27]: 5.79 µM
CC50 [27]: > 100 µM

CNC(=O)NC[C@H]1O[C@@H](n2cnc3c(NC(=O)Nc4ccccc4)ncnc32)C(O[Si](C)(C)C(C)(C)C)[C@H]1O[Si](C)(C)C(C)(C)C (stereo partly shown) [Compound 25, 2′,3′-Bis-O-(tert-butyldimethylsilyl)-5-deoxy-5′-[(N-methylcarbamoyl)amino]-N^6-(N-phenylcarbamoyl)adenosine]
TGI [9]: >1.00E−4 Molar
Percent Growth [9, 28]: 4%
Percent Growth [9, 29]: 6%
Percent Growth [9, 30]: 83%
Percent Growth [9, 31]: 91%
Percent Growth [9, 32]: 93%
GI50 ([14]; PC-3): 2.69 µM
IC50 ([14]; PC-3): > 100 µM
